What all share (experiment): biochemical
The target in assay [1] is T1, sDSP (DSP178–627) (Homo sapiens, UniProt P15924, S442F).
T1 construct: gene DSP; N-terminal spectrin repeat/SH3 fragment, residues 178-627; pGEX-1 GST fusion cut with thrombin, E. coli BL21(DE3); fluorescein-5-maleimide label on exposed cysteines (C405, C524)
T1 sequence (P15924 178-627 S442F): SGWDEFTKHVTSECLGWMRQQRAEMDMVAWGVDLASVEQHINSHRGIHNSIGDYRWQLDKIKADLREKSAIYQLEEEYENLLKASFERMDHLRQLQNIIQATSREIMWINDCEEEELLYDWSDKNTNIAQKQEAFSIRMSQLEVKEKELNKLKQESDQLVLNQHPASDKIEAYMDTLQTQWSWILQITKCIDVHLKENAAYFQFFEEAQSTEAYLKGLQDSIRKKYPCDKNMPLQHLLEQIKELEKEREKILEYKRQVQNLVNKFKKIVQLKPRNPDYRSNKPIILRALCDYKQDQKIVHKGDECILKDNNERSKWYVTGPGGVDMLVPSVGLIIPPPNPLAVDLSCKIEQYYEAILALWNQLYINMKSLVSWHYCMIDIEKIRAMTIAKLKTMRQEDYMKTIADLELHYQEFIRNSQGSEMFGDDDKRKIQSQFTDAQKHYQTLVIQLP
Details: FITC-sDSP degradation by calpain (1:20), fluorescence polarization after 60 min, per cent of calpain-only control. Conditions: degradation rate of DSP S442F by calpain; read-out: % of control remaining. How it is done: (§1) Fluorescence Polarization (FP) assays were conducted in […] format using a BioTek Synergy H4 plate reader with polarization capacity (Agilent; Savage, MD, USA). All samples were run at 25 °C using PBS pH 7.4, 1 mM DTT, 10 mM CaCl2, 5% DMSO, and […] FITC- DSP178–627, with 500 μM of each drug. Trypsin, chymotrypsin, or calpain at either 1:50, 1:50, or 1:20 concentration was added directly before data collection with an average void time of 2 min. Control experiments in each plate were conducted in triplicate and consisted of DSP178–627 + DMSO + protease as a positive control and DSP178–627 + DMSO + [compound left out] + protease as a negative control. Only plates that had functional positive and negative controls were used in data analysis. Samples were excited at 485 nm, and polarization was monitored at 528 nm. Data were collected at 5 min increments for 1–3 h. […] Therefore, we next tested whether these 62 compounds also prevent wildtype and variant DSP degradation in the presence of calpain. […] (A) Normalized fluorescent polarization of WT and sDSP variants in the presence of a 1:20 ratio of calpain plus 500 μM drug, as compared to calpain alone (black) (B) Identity and chemical structure of the six best-performing compounds.

The target in assay [2] is T2, sDSP (DSP178–627) (Homo sapiens, UniProt P15924).
T2 construct: gene DSP; N-terminal spectrin repeat/SH3 fragment, residues 178-627; pGEX-1 GST fusion cut with thrombin, E. coli BL21(DE3); fluorescein-5-maleimide label on exposed cysteines (C405, C524)
T2 sequence (P15924 178-627): T1 sequence (P15924 178-627 S442F) with F265S
Details: FITC-sDSP degradation by calpain (1:20), fluorescence polarization after 60 min, per cent of calpain-only control. Conditions: degradation rate of DSP WT by calpain; read-out: % of control remaining. How it is done:
as §1

Assay [3] has as its target T3, sDSP (DSP178–627) (Homo sapiens, UniProt P15924, R451G).
T3 construct: gene DSP; N-terminal spectrin repeat/SH3 fragment, residues 178-627; pGEX-1 GST fusion cut with thrombin, E. coli BL21(DE3); fluorescein-5-maleimide label on exposed cysteines (C405, C524)
T3 sequence (P15924 178-627 R451G): T1 sequence (P15924 178-627 S442F) with F265S, R274G
Details: FITC-sDSP degradation by calpain (1:20), fluorescence polarization after 60 min, per cent of calpain-only control. Conditions: degradation rate of DSP R451G by calpain; read-out: % of control remaining. The method, then: as §1

The target in assay [4] is T4, sDSP S507F (Homo sapiens, UniProt P15924, S507F).
T4 construct: gene DSP; N-terminal fragment, residues 178-627
Also noted: FITC-sDSP degradation by calpain (1:20), fluorescence polarization after 60 min, per cent of calpain-only control. Conditions: degradation rate of DSP S507F by calpain; read-out: % of control remaining. How it is done:
as §1

The target in assay [5] is T1, sDSP (DSP178–627). Also noted: FITC-sDSP S442F degradation by trypsin (1:50), fluorescence polarization after 60 min, per cent of protease-only control. Particulars: degradation rate of DSP S442F by trypsin; read-out: % of control remaining. The method, then: Fluorescence Polarization (FP) assays were conducted in […] format using a BioTek Synergy H4 plate reader with polarization capacity (Agilent; Savage, MD, USA). All samples were run at 25 °C using PBS pH 7.4, 1 mM DTT, 10 mM CaCl2, 5% DMSO, and […] FITC- DSP178–627, with 500 μM of each drug. Trypsin, chymotrypsin, or calpain at either 1:50, 1:50, or 1:20 concentration was added directly before data collection with an average void time of 2 min. Control experiments in each plate were conducted in triplicate and consisted of DSP178–627 + DMSO + protease as a positive control and DSP178–627 + DMSO + [compound left out] + protease as a negative control. Only plates that had functional positive and negative controls were used in data analysis. Samples were excited at 485 nm, and polarization was monitored at 528 nm. Data were collected at 5 min increments for 1–3 h. A mutation that partially occludes the DSP calpain cleavage site rescues DSP protein levels. We next assessed whether protease-dependent cleavage can also be blocked by small molecules. We screened 2496 FDA-approved drugs for their ability to prevent trypsin-dependent cleavage of sDSP S442F in our FP assay (Figure 3A). […] No change in fluorescence polarization after an hour is indicative of 0% protein degradation rate, as occurs in the [compound left out] positive control. […] (A) sDSP S442F degradation in the presence of trypsin plus 2496 compounds from the Cayman chemical “FDA library”. A degradation rate of 100% indicates the same desmoplakin degradation rate with and without the addition of 500 μM drug while a 0% rate indicates no degradation, as judged by fluorescent polarization values after 1 h. A trypsin-only control and a trypsin + [compound left out] control is indicated. Protection (red lines) was arbitrarily set between 33% and −10%. […] (B) Example of how the data in A was generated.

Each structure is given as a SMILES string. Numbering of substitutions follows the chain as printed. Where a name gives a salt, the structure may show the parent alone. Read-outs that look alike come from different tables or passages of the source.

T4 sequence (P15924 whole entry S507F, the tested form may be a part): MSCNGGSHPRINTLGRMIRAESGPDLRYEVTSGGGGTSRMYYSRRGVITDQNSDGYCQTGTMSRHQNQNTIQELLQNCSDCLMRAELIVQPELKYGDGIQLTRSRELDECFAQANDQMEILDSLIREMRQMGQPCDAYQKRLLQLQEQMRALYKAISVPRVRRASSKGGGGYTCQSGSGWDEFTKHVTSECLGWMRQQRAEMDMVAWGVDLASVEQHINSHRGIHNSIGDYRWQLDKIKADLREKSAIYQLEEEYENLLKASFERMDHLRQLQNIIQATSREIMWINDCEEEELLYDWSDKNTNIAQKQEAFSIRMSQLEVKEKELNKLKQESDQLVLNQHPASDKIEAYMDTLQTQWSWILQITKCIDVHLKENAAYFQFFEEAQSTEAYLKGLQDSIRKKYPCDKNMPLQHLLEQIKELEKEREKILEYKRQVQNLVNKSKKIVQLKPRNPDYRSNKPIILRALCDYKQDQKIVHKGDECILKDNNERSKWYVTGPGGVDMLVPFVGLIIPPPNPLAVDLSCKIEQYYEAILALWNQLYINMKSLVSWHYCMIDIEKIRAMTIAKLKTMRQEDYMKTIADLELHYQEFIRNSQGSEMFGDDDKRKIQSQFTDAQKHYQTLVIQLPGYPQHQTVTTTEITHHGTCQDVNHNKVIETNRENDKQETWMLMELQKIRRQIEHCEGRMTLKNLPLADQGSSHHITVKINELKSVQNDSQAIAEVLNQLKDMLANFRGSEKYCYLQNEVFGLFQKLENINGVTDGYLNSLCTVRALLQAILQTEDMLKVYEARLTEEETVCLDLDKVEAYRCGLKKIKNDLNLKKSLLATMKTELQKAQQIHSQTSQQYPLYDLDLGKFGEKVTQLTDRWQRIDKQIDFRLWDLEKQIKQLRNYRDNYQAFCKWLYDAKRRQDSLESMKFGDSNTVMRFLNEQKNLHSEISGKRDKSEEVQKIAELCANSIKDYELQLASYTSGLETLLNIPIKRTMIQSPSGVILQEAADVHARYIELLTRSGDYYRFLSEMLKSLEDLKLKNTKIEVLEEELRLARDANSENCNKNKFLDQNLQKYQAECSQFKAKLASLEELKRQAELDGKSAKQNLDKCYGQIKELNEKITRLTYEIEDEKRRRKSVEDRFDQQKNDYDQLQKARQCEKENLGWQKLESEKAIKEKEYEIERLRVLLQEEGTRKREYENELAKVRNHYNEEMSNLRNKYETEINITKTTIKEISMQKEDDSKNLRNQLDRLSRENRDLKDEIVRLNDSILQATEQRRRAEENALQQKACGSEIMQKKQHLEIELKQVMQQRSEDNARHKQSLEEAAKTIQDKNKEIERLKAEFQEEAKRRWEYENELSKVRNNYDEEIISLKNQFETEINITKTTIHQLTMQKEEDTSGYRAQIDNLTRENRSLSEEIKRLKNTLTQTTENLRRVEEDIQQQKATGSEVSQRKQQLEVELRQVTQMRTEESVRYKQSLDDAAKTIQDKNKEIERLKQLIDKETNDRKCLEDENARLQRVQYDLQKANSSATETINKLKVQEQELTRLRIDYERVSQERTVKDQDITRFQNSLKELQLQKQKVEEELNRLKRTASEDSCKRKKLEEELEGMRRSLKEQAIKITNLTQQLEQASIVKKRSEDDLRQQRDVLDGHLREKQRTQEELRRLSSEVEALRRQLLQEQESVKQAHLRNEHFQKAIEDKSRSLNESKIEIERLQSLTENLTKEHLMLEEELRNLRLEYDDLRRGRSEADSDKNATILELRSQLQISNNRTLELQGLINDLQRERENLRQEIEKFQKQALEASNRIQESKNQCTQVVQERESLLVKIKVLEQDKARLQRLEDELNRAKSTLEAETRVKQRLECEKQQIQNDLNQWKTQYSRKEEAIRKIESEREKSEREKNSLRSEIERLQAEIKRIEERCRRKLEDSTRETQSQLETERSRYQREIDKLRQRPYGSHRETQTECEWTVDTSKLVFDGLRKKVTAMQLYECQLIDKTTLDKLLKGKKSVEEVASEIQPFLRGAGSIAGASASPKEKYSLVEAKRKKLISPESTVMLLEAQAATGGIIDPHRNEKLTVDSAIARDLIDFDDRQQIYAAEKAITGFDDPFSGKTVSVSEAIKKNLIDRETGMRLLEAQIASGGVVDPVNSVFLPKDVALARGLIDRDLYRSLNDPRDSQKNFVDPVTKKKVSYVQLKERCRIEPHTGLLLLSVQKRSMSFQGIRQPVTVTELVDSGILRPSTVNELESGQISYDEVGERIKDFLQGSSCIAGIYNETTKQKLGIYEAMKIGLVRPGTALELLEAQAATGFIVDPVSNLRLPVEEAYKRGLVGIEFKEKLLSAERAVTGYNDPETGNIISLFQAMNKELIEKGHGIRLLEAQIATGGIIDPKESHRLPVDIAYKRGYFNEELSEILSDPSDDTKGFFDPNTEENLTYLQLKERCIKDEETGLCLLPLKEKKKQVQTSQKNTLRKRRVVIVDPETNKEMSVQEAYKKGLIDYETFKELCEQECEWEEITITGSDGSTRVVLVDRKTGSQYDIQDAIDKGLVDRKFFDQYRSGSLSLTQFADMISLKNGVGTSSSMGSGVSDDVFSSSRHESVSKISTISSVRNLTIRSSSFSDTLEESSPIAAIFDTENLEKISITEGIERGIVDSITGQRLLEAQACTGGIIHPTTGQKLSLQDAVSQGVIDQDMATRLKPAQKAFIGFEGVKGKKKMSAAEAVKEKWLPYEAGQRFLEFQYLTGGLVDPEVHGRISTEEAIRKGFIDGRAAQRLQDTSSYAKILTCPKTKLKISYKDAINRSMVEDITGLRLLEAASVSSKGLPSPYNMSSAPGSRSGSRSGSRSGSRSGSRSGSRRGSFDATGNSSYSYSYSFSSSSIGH

As for `CC(=O)O[C@H]1C(=O)[C@@]2(C)[C@H]([C@H](OC(=O)c3ccccc3)[C@]3(O)C[C@H](OC(=O)[C@H](O)[C@@H](NC(=O)c4ccccc4)c4ccccc4)C(C)=C1C3(C)C)[C@]1(OC(C)=O)CO[C@@H]1C[C@@H]2O` [Taxol], the remaining activity at 500 µM in assay [1] came out at 87%; in assay [2] it was 48%; in assay [3], 38%; in assay [4] it was 34%; in assay [5], 31%.

In the case of `CCCCc1ncc(/C=C(\Cc2cccs2)C(=O)O)n1Cc1ccc(C(=O)O)cc1` [eprosarten mesylate], the remaining activity at 500 µM in assay [1] was 26%; in assay [2] it was 30%; in assay [3], 33%; in assay [4], 31%; in assay [5] it was 32%.

On to `CCCCCCCCCCCCCCCC(=O)NCCO` [palmitoylethanolamide], for which the remaining activity at 500 µM is -3% in assay [1]; 22% in assay [2]; 8% in assay [3]; 3% in assay [4]; 26% in assay [5].

Consider `CC(C)=CCC/C(C)=C/CC/C(C)=C/CSc1ccccc1C(=O)O` [salirasib], for which the remaining activity at 500 µM in assay [1] was 29%; in assay [2] it was 32%; in assay [3], -5%; in assay [4] it was 26%; in assay [5], -8%.

The values above are taken from paper PMC10890502, “Prevention of Protease-Induced Degradation of Desmoplakin via Small Molecule Binding” (Journal of Personalized Medicine, 2024).
